The experiment concerns S. cerevisiae Mot1-301 ts growth rescue, BacTiter-Glo ATP luminescence. Nature of the experiment: growth rescue of Mot1-301 ts yeast, confirmation, SUMOylation pathway inhibitor project, whole organism, S. cerevisiae, Mot1-301 ts mutant, luminescence, dose retest (AID 463204).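 Further: growth at restrictive 38.5 degrees C of Mot1-301 OY566 strain; actives raise luminescence by restoring growth of the ts mutant at high temperature.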

The structures appear in SMILES notation. The source made the active and inactive calls.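 How the source made its calls: active means AC50 no more than ten times the top concentration tested, that is within one log above it; inconclusive means flat curve fit with activity between 30% and 70%, or invalid poor fit; inactive means AC50 beyond ten times the top tested dose.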 Some results are limits rather than exact numbers.

Regarding `COc1ccc(S(=O)(=O)N2CCN(c3ccc(F)cc3)CC2)cc1C(=O)N1CCOCC1`, the AC50 was > 42 µM (inactive). As to `CCC1SC2=NC(C)=C(C(=O)OCCOC)C(c3ccc(C(=O)OC)cc3)N2C1=O` (configuration not stated), the AC50 was > 42 µM (inactive).

For the compound `O=C(O)c1cccc(NC(=O)c2cccc(S(=O)(=O)Nc3cccc([N+](=O)[O-])c3)c2)c1`, the AC50 is > 42 µM (inactive). For `COc1cc2c(=O)n(CCC(=O)NCC3CCCO3)c(=O)n(CC(=O)Nc3ccccc3C)c2cc1OC` (configuration not stated), the AC50 was > 42 µM (inactive). For the compound `CC(C)C1=CC(=Nc2ccc(S(N)(=O)=O)cc2)C=C(C(C)C)C1=O`, the AC50 was > 42 µM (inactive). In the case of `CCOC(=O)C1=C(C)NC(C)=C(C(=O)OCC)C1C(=O)OC1CCOC1=O` (configuration not stated) it was > 42 µM (inactive); in that of `Cc1ccc(C(=O)N/C(=C\c2cccs2)C(=O)NCc2ccncc2)cc1`, > 42 µM (inactive); in that of `COc1ccc(-c2nc(C#N)c(NC(C)c3ccccc3)o2)cc1OC` (configuration not stated), > 42 µM (inactive). Turning to `O=C(Nc1cccc(C(=O)Nc2ccc(F)cc2F)c1)c1ccccc1`, the AC50 was > 42 µM (inactive). For `CC1CCC(C(C)C)C(OC(=O)COC(=O)c2cccn2C)C1` (configuration not stated), the AC50 is > 42 µM (inactive). In the case of `Cc1c(C(=O)NC(C)C)oc2c1-c1[nH]ncc1CC2` it was > 42 µM (inactive). Turning to `Cc1ccccc1C(=O)NNC(=O)/C=C\C(=O)O`, the AC50 was > 42 µM (inactive).

Turning to `OC1CN=C2CCCc3c2n(c2ccc(Cl)cc32)C1` (configuration not stated), the AC50 is > 42 µM (inactive). In the case of `CCOc1ccc(Cl)cc1S(=O)(=O)N1CCC(C(=O)NCc2cccnc2)CC1` it was > 42 µM (inactive); in that of `COC(=O)C(NC(C)=O)(Nc1nc2ccc(S(C)(=O)=O)cc2s1)C(F)(F)F` (configuration not stated), > 42 µM (inactive). To `C=CCn1cc(C(C)=O)c(=O)[nH]c1=O` belongs > 42 µM (inactive). `O=C(O)C1C(C(=O)O)C2(Cl)C(Cl)=C(Cl)C1(Cl)C2(Cl)Cl` (configuration not stated): the AC50 was > 42 µM (inactive).

Turning to `CCOC(=O)C1(Cc2cccc(Cl)c2)CCCN(C(=O)CCOC)C1` (configuration not stated), the AC50 is > 42 µM (inactive).

In the case of `CCN(CC)C(=O)C1CCCN(c2ccc([N+](=O)[O-])cc2/C=N/NC(=O)c2cccc(Br)c2)C1` (configuration not stated), the AC50 is > 42 µM (inactive). As to `O=C(NCC1CCN(Cc2ccccc2Cl)CC1)Nc1ccccc1F`, the AC50 is > 42 µM (inactive).

Take `Cc1cccc(C)c1NC(=O)C(Cl)C(=O)c1ccccc1` (configuration not stated): the concentration at half-maximal activity (AC50) is 0.68 µM.

With `CC(=O)C(C(c1ccccc1)c1c[nH]c2ccccc12)[N+](=O)[O-]` (configuration not stated), the AC50 was 33 µM. For `N#Cc1c2ccc([N+](=O)[O-])cc2[n+]([O-])n1-c1ccccc1`, the AC50 was 2.9 µM. `O=C1CN(C(=O)COC(=O)c2ccccc2NCc2ccco2)c2ccccc2N1`: the AC50 is > 42 µM (inactive). Regarding `N#C/C(=C\Nc1ccc2c(c1)OCCO2)c1nc2ccccc2[nH]1`, the AC50 is > 42 µM (inactive).

As for `CCN(CC)S(=O)(=O)c1ccc(N2CCCC2)c(C(=O)OCC(=O)Nc2cc(C)on2)c1`, the AC50 is > 42 µM (inactive).

Take `Cc1cccn2c(=O)c3cc(C(=O)NCCc4ccccc4)sc3nc12`: the AC50 was > 42 µM (inactive). On to `CC(C)(C)c1ccc(-c2nc(C=O)c3ccccn23)cc1`, for which the AC50 is > 42 µM (inactive).

`CN1CCCC(n2nc(Cc3ccc(Cl)cc3)c3ccccc3c2=O)CC1` (configuration not stated): the AC50 is > 42 µM (inactive). Turning to `Cc1ccc(NC(=O)CN(C)C(=O)c2cccc(Br)c2)cc1`, the AC50 was > 42 µM (inactive). With `CC1(C)CC(=O)C2=C(C1)Oc1ncn(CCO)c(=N)c1C2c1ccccc1` (configuration not stated), the AC50 was > 42 µM (inactive). To `Cc1cc(C)cc(NC(=O)C2CCCN(S(=O)(=O)c3ccc4[nH]c(=O)ccc4c3)C2)c1` (configuration not stated) belongs > 42 µM (inactive); to `CC(C)(C)n1cnc2cc(NC(=O)c3ccc(Cl)cc3)ccc21`, > 42 µM (inactive). On to `NC1=NC2(CCCC2)N=C(Nc2ccccc2)N1`, for which the AC50 is > 42 µM (inactive). To `CC(C)NC(=O)CCCc1cn(C)c2ccccc12` belongs > 42 µM (inactive); to `CN(C)CCNC(=O)c1onc(CSc2ccc(F)c(F)c2)c1C(=O)NCCN(C)C`, > 42 µM (inactive); to `CCC12CN3CCN(CC(C3)/C1=N/NC(=O)c1ccncc1)C2`, > 42 µM (inactive). To `Cc1cc2ncc(C(=O)N=CN(C)C)cn2n1` belongs > 42 µM (inactive); to `COc1ccc(C(=O)Nc2ccccc2C(=O)NCCN2CCOCC2)cc1OC`, > 42 µM (inactive); to `CC(C)(C)C(=O)NC1CCN(CC(=O)Nc2ccc3c(c2)OCO3)CC1`, > 42 µM (inactive).

With `Cc1ccc(C(C[N+](=O)[O-])c2c(C)[nH]n(-c3ccccc3)c2=O)cc1` (configuration not stated), the AC50 is 6.06 µM. As to `Cc1ccc(S(=O)(=O)N2CCCC2C(=O)NCCc2ccccc2)cc1` (configuration not stated), the AC50 is > 42 µM (inactive).

On to `CCN(CC)C(=O)CSc1nnc(SCc2ccc(Cl)cc2)s1`, for which the AC50 is > 42 µM (inactive).

In the case of `COc1ccc(C(=O)N/C(=C\c2cc(OC)c(OC)cc2[N+](=O)[O-])C(=O)NCCO)cc1`, the AC50 is > 42 µM (inactive). Take `C(=N\N1CCN(C2c3ccccc3-c3ccccc32)CC1)/c1ccncc1`: the AC50 was 13.8 µM. For the compound `CCOc1ccccc1N(C(=O)c1snc(C(N)=O)c1N)C(CC)C(=O)NC1CCCC1` (configuration not stated), the half-maximal activity concentration (AC50) was 41.7 µM.

For `NC(=O)CC(NC(=S)NCc1ccccc1)C(=O)O` (configuration not stated), the AC50 was > 42 µM (inactive).

Regarding `O=C1NC(c2ccccc2)C(C(=O)c2cccs2)C(O)(C(F)(F)F)N1` (configuration not stated), the AC50 was > 42 µM (inactive).

In the case of `Cc1cccc(N2C(=O)CSC2c2cccnc2)c1` (configuration not stated), the AC50 was > 42 µM (inactive). For the compound `COc1ccccc1C(=O)NC(=O)COC(=O)Cc1ccccc1[N+](=O)[O-]`, the AC50 is > 42 µM (inactive). For the compound `COc1ccc(CN2CCCCCC2)cc1`, the AC50 was > 42 µM (inactive).

As for `CCOc1ccc(Br)cc1S(=O)(=O)N1CCC(C(N)=O)CC1`, the AC50 was > 42 µM (inactive). In the case of `COC(=O)C1CN(C(=O)C(C)Oc2ccc(F)cc2)c2ccccc2O1` (configuration not stated), the AC50 was > 42 µM (inactive).

Take `COc1ccc(-c2[nH]ncc2CNCCn2cccn2)c(F)c1`: the AC50 was > 42 µM (inactive). Turning to `COc1ccccc1/C=C/C(=O)N1CCc2cc(OC)c(OC)cc2C1C` (configuration not stated), the AC50 was > 42 µM (inactive). To `O=C1C2C(c3ccccc3)CC=CC2[C@H](c2ccc3ccccc3c2)N1Cc1ccccc1` (some centres not stated) belongs 11.3 µM; to `CCN(CC)S(=O)(=O)c1cc(NC(=O)COC(=O)CCc2nc3ccccc3s2)ccc1C`, > 42 µM (inactive); to `O=C(Nc1ccc(S(=O)(=O)NC2=NCCCCC2)cc1)c1ccc(C(F)(F)F)cc1`, > 42 µM (inactive). On to `O=c1[nH]cnc2ccc([N+](=O)[O-])cc12`, for which the AC50 was > 42 µM (inactive). Regarding `COc1ccc2[nH]c(=O)c(CN(C(=O)c3ccccn3)c3ccccc3)cc2c1`, the AC50 was > 42 µM (inactive). Consider `CCN(CC)c1ccc(C=C2C(=O)OC(c3ccccc3)OC2=O)cc1` (configuration not stated), for which the AC50 was > 42 µM (inactive). Take `CC(=O)c1ccc(N2CCN(CC(=O)Nc3cc(C)on3)CC2)cc1`: the AC50 is > 42 µM (inactive). To `CCOc1ccc2nc(C(C)O)[nH]c2c1` (configuration not stated) belongs > 42 µM (inactive). Regarding `Cc1[nH]n(-c2ccccc2)c(=O)c1C(C[N+](=O)[O-])c1ccc(Br)cc1` (configuration not stated), the AC50 was > 42 µM (inactive). Turning to `O=C(Nc1ccc2[nH]c(=O)[nH]c2c1)c1c(F)c(F)c(F)c(F)c1F`, the AC50 was > 42 µM (inactive). To `Cn1c(=O)nc2n(Cc3ccccc3)c3ccccc3cc-2c1=O` belongs > 42 µM (inactive); to `O=C(CC(c1ccccc1)c1ccccc1)NCCOCc1ccccc1`, > 42 µM (inactive). Take `O=C1CCCC2=C1C(c1ccncc1)c1c(nc(SCc3ccccc3Cl)[nH]c1=O)N2` (configuration not stated): the AC50 is > 42 µM (inactive).

For the compound `Cc1ccc(NC(=O)Cn2c(CCC(=O)O)ccc2-c2cccs2)cc1`, the AC50 was > 42 µM (inactive). For `Cc1ccc2nc3c(cc(C(=O)NCCN4CCOCC4)c(=N)n3CCCN3CCOCC3)c(=O)n2c1`, the AC50 is > 42 µM (inactive). Consider `CC(=O)c1ccc(NC(=O)CSc2nnc(-c3ccco3)o2)cc1`, for which the AC50 is > 42 µM (inactive). For the compound `COc1cccc(OC)c1C(=O)Nc1ccc2c(c1)N(S(=O)(=O)c1cccs1)CCC2`, the AC50 is > 42 µM (inactive).

Turning to `CC1=CC(=O)C(C(C)C)=C/C1=N/OS(=O)(=O)c1ccccc1`, the AC50 was 0.92 µM. Take `CC(NC(=O)C1CCCCC1)C(=O)NC1=NCCS1` (configuration not stated): the AC50 is > 42 µM (inactive). Regarding `CCN(CC)S(=O)(=O)c1ccc(NC(=O)C(C)N(c2ccccc2)S(C)(=O)=O)cc1` (configuration not stated), the AC50 is > 42 µM (inactive). To `Cc1ccc(N(CC(=O)NC2CCCC2)C(=O)CCC(=O)Nc2ccccn2)cc1C` belongs > 42 µM (inactive). In the case of `CCOC(=O)C1(CCOc2ccccc2)CCN(Cc2cccc(OC)c2O)CC1` it was > 42 µM (inactive); in that of `CCNC(=O)C1CC(=O)N(Cc2ccc3c(c2)OCO3)C(=Nc2ccc(F)cc2)S1` (configuration not stated), > 42 µM (inactive); in that of `CCCCC(=O)Nc1nnc(/C=C/c2ccc(OC)cc2)s1`, > 42 µM (inactive). Take `COC(=O)c1ccc(CSc2nnnn2-c2ccccc2)o1`: the AC50 is > 42 µM (inactive).

In the case of `C#CCn1c(=NC(=O)CN2C(=O)CCC2=O)sc2cccc(OC)c21`, the AC50 is > 42 µM (inactive). For `COc1cc(C(=O)NCCOc2cc(C)cc(C)c2)cc(OC)c1OC`, the AC50 was > 42 µM (inactive). With `COc1cc(/C=N/NC(=O)c2cccc([N+](=O)[O-])c2)ccc1O`, the AC50 was > 42 µM (inactive). To `CN(C)S(=O)(=O)c1ccc(Cl)c(NC(=O)CN2C(=O)NC(C)(C3CC3)C2=O)c1` (configuration not stated) belongs > 42 µM (inactive); to `COCCCn1c2nc3ccccc3nc2c2c(=O)n(Cc3ccc(Cl)cc3)cnc21`, > 42 µM (inactive). Take `COc1cc(-c2nnc(SCC#CCO)o2)cc(OC)c1OC`: the AC50 was > 42 µM (inactive). As to `O=Cc1ccccc1OCCN1CCCC1=O`, the AC50 was > 42 µM (inactive).

For orientation: AC50 means the concentration giving half of the maximal activity seen.

The record behind these values is PubChem BioAssay AID463204 (Broad Institute, 2010).
